Test results taken from patent US7273964B1, “Non-human transgenic animals for the study of neurodegenerative syndromes” (Scuola Internazionale Superiore Di Studi Avanzati, priority 1999, dated 2007).
Entries after “also recorded” stand apart in the source; their conditions may differ.

Columns and labels:
[1] = system: gastrocnemius muscle of anti-NGF mice; assay: Reversibility of the muscular dystrophy in anti-NGF mice by NGF local administration; assay type: in vivo, mouse; conditions: 45 day old anti-NGF mice, 7, 15 and 30 days after injection
Experimental: All the experiments were carried out on 45 day old mice, when the serum level of the anti-NGF antibody is still not at the highest level (observed 60 days after the birth). The NGF was administered locally by different methods: (a) by intramuscular injection of NGF, (b) by intramuscular injection of a viral recombinant vector (adenovirus) encoding for NGF cDNA or (c) by the implant of NGF secreting fibroblasts. All the administration routes included the injection or implant in the gastrocnemius muscle, one of the skeletal muscles affected by muscular dystrophy. The injections and implants were carried out on the right leg, while the gastrocnemius muscle of the left leg was used as control. A) NGF was injected as pellet, consisting of diazocellulose mixed NGF in borate buffer at pH 8.0 for 72 hours and following neutralisation by glycine saturated solution (Hendry, 1982). This method allows the exact localisation and slow release of this neurotrophin. Different NGF concentrations were used, comprised in the range from […] and 2 mg for each animal. […]
To verify the effect of the NGF administration the animals were sacrificed 7, 15 and 30 days after the injection. The injected and contralateral muscles were collected and analysed by histological and immunohistochemical techniques to verify the attenuation of the dystrophy and the restoration of usual innervation.

anti-NGF mice [2] = assay: Restoration of the cholinergic phenotype in the basal forebrain of anti-NGF mice by NGF (minipump or NGF-secreting fibroblasts, lateral ventricle); assay type: in vivo, mouse; conditions: 2 months-old anti-NGF mice; NGF into lateral ventricle
Experimental: The restoration of the cholinergic phenotype in the basal forebrain was achieved by two different approaches. In a first set of experiments, NGF was delivered using slow releasing minipumps (Alzet, USA) A rubber capillary tube was inserted in the lateral ventricle and then connected by means of an osmotic minipump to a <> of the subcutaneous layer. This pump was filled by NGF (30–100 μg) diluted with Ringer-Locke physiological saline. Experiments were performed in 2 months-old transgenic mice and controls.
In another set of experiments, animals of the same age of previous ones were treated by an implant of fibroblasts genetically modified to secrete NGF. The fibroblasts were injected in the lateral ventricle at a 2×10^5 cells/μl concentration. The injection volume was 1.5 μl/animal. This second method allowed to verify, by ELISA, the constancy of NGF production over 4 weeks after the implantation.

αD11 antibody = assay: Phage ELISA assay; assay type: binding; conditions: phages selected against αD11
Experimental: Phage ELISA assay. Ninety-six well plates were coated with 100 μl of rat anti-pill monoclonal antibody (57D1, gift by P. Delmastro) diluted in coating buffer (1 μg/ml 50 mM carbonate buffer pH 9.6) and incubated overnight at 4° C. Palts were washed in PBST and blocked in 5% milk/PBST for 1 h at 37° C. on a rocking platform. After 1 brief wash, a mixture of cleared phage supernatant (50 μl) and 50 μl of 5% milk/PBST was added and incubated for 1 h at 37° C. The plates were washed and 100 μl of αD11 antibody dilution (1 μg/ml in 5% milk/PBS) were added and left overnight at 4° C. After washing, an alkaline phosphatase conjugated anti-mouse antibody was added and left at 4° C. for 4 hrs. The reaction was developed by adding 200 μl of the substrate solution (10% dietanolamine, 5 mM MgCl2 pH 9.6) for 2 min followed by an incubation at 37° C. for 1 h in 100 μl of developing solution (1 mg/ml NTB in 10% dietanolamine, 5 mM MgCl2, pH 9.6).
Positive phage clones were analyzed by the single strand DNA sequencing. The positive phage clones were sequenced and re-tested using dot blot experiments towards the αD11 antibody. At least twenty were analyzed.

anti-NGF mice [3] = assay: Number of ChAT-positive neurons in the basal forebrain (immunohistochemistry, stereology); assay type: in vivo, mouse
Experimental: (§1) Peptide 18 treatment. Prior to the injections, phages carrying the peptide 18 or a peptide raised against NT-3 (negative control) were amplified by infecting 2.5 ml of an overnight colture of DH5alpha F′ bacteria with 5 ml of phage supernatant in 1 liter of 2TY. After an overnight incubation at 30° C., bacteria were removed by centrifugation at 6000 rpm for 20 min at 4° C. Phage particles were precipitated by adding 1 volume of PEG/NaCl (20% PEG6000, 2.5 M NaCl) to 5 volumes of the supernatant. After mixing, the solution was left stand overnight at 4° C. and spinned at […] for 30 min. The pellet was resuspended in 40 ml of […], kept at 65° C. and then spun for 5 min at 11000 rpm.
One volume of PEG/NaCl was mixed to 5 volumes of the phage containing supernatant and incubated for 2 hrs at 4° C. After spinning at 11000 rpm for 5 min., the pellet was resuspended in PBS, spun again to remove cell debris and filtered through a 0.22 μm sterile filter. The phage suspension was then titred by infecting 100 μl of an overnight colture of DH5α F′, mixed with LB top agar and plated on LB plates. Phages carrying the carrying the peptide 18 or a peptide binder of anti-NT-3 (10^9–10^12 pfu/μl) were injected in both lateral ventricles. Phages were injected at postnatal day 53 (P53) and mice were killed 1 week after the injection. For the injection, mice were anaesthetised with 2,2,2-Tribromoethanol (0.2 ml/10 g body weight of a 1.2% solution). One μl of phage suspension was injected using a 17 gauge needle connected to a 10 μl Hamilton by a polyethylene cannula, 1 mm lateral and 1 mm anterior to Bregma. After the injection, animals were treated with ampicillin (1 mg/kg) every day, in order to prevent any bacterial infection. Experiment were performed three times for a total number of animals equal to 14 for each group of treatment.
L-thyroxine treatment. […]
Quantitative stereology. The volume of basal forebrain and the number of BFCNs was evaluated in 9 anti-NGF transgenic mice and 8 transgenic controls by using a stereological approach (Ruberti, 2000).

anti-NGF mice [4] = assay: AT8 (phosphorylated tau) immunohistochemistry in entorhinal cortex; assay type: in vivo, mouse
Experimental: as §1
One volume of PEG/NaCl was mixed to 5 volumes of the phage containing supernatant and incubated for 2 hrs at 4° C. After spinning at 11000 rpm for 5 min., the pellet was resuspended in PBS, spun again to remove cell debris and filtered through a 0.22 μm sterile filter. The phage suspension was then titred by infecting 100 μl of an overnight colture of DH5α F′, mixed with LB top agar and plated on LB plates. Phages carrying the carrying the peptide 18 or a peptide binder of anti-NT-3 (10^9–10^12 pfu/μl) were injected in both lateral ventricles. Phages were injected at postnatal day 53 (P53) and mice were killed 1 week after the injection. […]

free NGF = assay: Determination of free NGF by ELISA; assay type: in vivo, mouse
Experimental: Determination of free NGF. The levels of free NGF (i.e. NGF not bound to the transgenic antibodies) in the different tissues was determined by an ELISA assay. This assay exploits the property of αD11 antibody to recognize NGF in a two-site ELISA format 16. Samples of blood serum or of tissue extracts (derived as in Molnar et al., 1998) were added to wells coated with mAb αD11 (coating concentration of […]). After incubation for 2 hours at r.t. and extensive washing with PBS-0.05% Tween 20, followed by PBS, free NGF, not engaged with transgenic αD11, was detected using an affinity-purified rabbit anti-NGF polyclonal antiserum.

[5] = system: visual cortex slices of anti-NGF mice; assay: Long Term Potentiation (LTP) in visual cortex slices, electrophysiological recordings; design: species or system mouse; conditions: 12 µg/animal/day for 4 weeks
Experimental: Visual cortex slices preparation and electrophysiological recordings. Postsynaptic field potentials were recorded in […] in vitro slices containing visual cortex, following previously described methods (Kirkwood and Bear, 1994). Anti-NGF and transgenic control mice were deeply anesthetized with urethane and then decapitated. The brain was rapidly removed and visual cortex slices (400 μm) prepared and superfused in a submerged recording chamber at 33° C. with gassed artificial cerebrospinal fluid (aCSF) at a rate of 4 ml/min.
The amplitude of the maximum negative field potential in layer 2/3 was used as a measure of the evoked population excitatory current. LTP was induced by 3 trains of high frequency stimulation (HFS, 100 Hz, 1 s). Experiments were performed at different postnatal ages 6 months, when the functional maturation of the visual cortex is completed. Acetylcholine dependence of LTP was investigated by locally delivering through the recording pipette. […] The magnitude of both LTP was measured starting 30 min after the end of the corresponding conditioning protocol. Data for each experimental group were pooled and expressed as percentage change from control baseline, PCCB±S.E.M. Statistical comparison was done by applying a t-test and Mann-Whitney Rank Sum Test between baseline and LTP mean values.

[6] = phage injected intraventricularly
[7] = intraperitoneal, 10 μg daily from P45 to P62
[8] = intraperitoneal, daily from P45 to P62

Q: How did the “muscle fibre morphology and cholinergic and peptidergic innervation” value [1] turn out when “NGF: Nerve Growth Factor, neurotrophin, given as pellet, adenoviral cDNA vector, minipump infusion or via NGF-secreting fibroblasts” was run?
A: Its value is “re-assumed an usual appearance”.

Q: And the “ChAT expression in nuclei of the basal forebrain and behaviour (cholinergic phenotype)” value (anti-NGF mice [2])?
A: Its value is “phenotype reversibility to be observed”.

Q: How did the “binding activity of phage clone to αD11” value (αD11 antibody) turn out when RGSRHDL [peptide 18] was run?
A: Its value is “stronger binding activity”.

Q: What about the “number of ChAT positive neurons in the basal forebrain” value (anti-NGF mice [3]; phage injected in both lateral ventricles at P53, killed 1 week later) of the same molecule?
A: Its value is “restored”.

Q: And the “AT8 labeling (hyperphosphorylated tau) in the somatic compartment of neurons of the entorhinal cortex” value (anti-NGF mice [4]; phage injected intraventricularly at P53)?
A: The value was “not paralleled by the disappearance of AT8 labeling; also recorded: decreases the expression in the soma”.

Q: And the “free NGF in blood serum and submandibular gland” value (free NGF; [6])?
A: Its value is “equal to animals treated with the non related peptide binder of anti-NT-3”.

Q: What about the “free NGF in brain” value (free NGF; [6]) of the same molecule?
A: Its value is “increase only at the level basal forebrain”.

Q: With N[C@@H](Cc1cc(I)c(Oc2cc(I)c(O)c(I)c2)c(I)c1)C(=O)O [LT4, L-thyroxine, reference compound] as the molecule, how does the “number of ChAT-positive neurons in the basal forebrain, compared with transgenic control” value (anti-NGF mice [3]; [7]) read?
A: The value was “equal to that observed in transgenic control animals”.

Q: What about the “number of ChAT-positive neurons, increase over not-treated or vehicle-treated anti-NGF mice” value (anti-NGF mice [3]; [7]) of the same molecule?
A: Its value is 40%.

Q: And the “AT8 labeling in the somatic compartment of neurons of the entorhinal cortex” value (anti-NGF mice [4]; [8])?
A: Its value is “disappearance of AT8 labeling”.

Q: What about the “free NGF in brain, blood serum and submandibular gland, compared with transgenic control” value (free NGF; [8]) of the same molecule?
A: The value was “reached almost the levels detectable in transgenic control animals”.

Q: What about the “free NGF in brain, blood serum and submandibular gland, compared with vehicle” value (free NGF; [8]) of the same molecule?
A: The value was “higher than that detected in animals treated with vehicle”.

Q: What about the “rescue of synaptic plasticity (LTP)” value [5] of the same molecule?
A: Its value is “only a mild rescue”.
